In ChEMBL document CHEMBL3352808, “Anthraquinone-chalcone hybrids: synthesis, preliminary antiproliferative evaluation and DNA-interaction studies” (Eur J Med Chem, 2015):
Activity calls are given as the source filed them. The rule behind the calls is not given here.

Key:
[1] = system: Calf thymus DNA; assay: Binding affinity to calf thymus DNA assessed as hyperchromism at 20 to 60 uM by spectroscopy; format: nucleic-acid assay; settings: Bos taurus
[2] = system: HeLa; assay: Induction of apoptosis in human HeLa cells assessed as caspase-3 activation at cytotoxic IC50 level after 24 hrs by Western blotting method; format: functional, cell-based
[3] = system: HeLa; assay: Induction of cell cycle arrest in human HeLa cells assessed as accumulation at subG1 phase at 2 times cytotoxic IC50 level after 24 hrs by propidium iodide staining based flow cytometry (reference value: 2.53%); format: functional
[4] = system: HeLa; assay: Induction of apoptosis in human HeLa cells assessed as increase in p18 Bax level at cytotoxic IC50 level after 24 hrs by Western blotting method; format: functional, cell-based
[5] = system: HeLa; assay: Induction of cell cycle arrest in human HeLa cells assessed as accumulation at S phase at cytotoxic IC50 level after 24 hrs by propidium iodide staining based flow cytometry (reference value: 14.5%); format: functional
[6] = system: HeLa; assay: Cytotoxicity against human HeLa cells assessed as reduction in cell survival after 72 hrs by MTT assay; format: functional, cell-based
[7] = system: MRC5; assay: Cytotoxicity against human MRC5 cells assessed as reduction in cell survival after 72 hrs by MTT assay; format: cell-based; settings: MRC5, 72 h
[8] = system: HeLa; assay: Induction of caspase-3 activation in human HeLa cells assessed as increase in spectrin cleavage product level at cytotoxic IC50 level after 24 hrs by Western blotting method; format: functional, cell-based
[9] = system: A549; assay: Induction of apoptosis in human A549 cells assessed as caspase-3 activation at cytotoxic IC50 level after 24 hrs by Western blotting method; format: functional, cell-based
[10] = system: A549; assay: Induction of apoptosis in human A549 cells assessed as increase in p18 Bax level at cytotoxic IC50 level after 24 hrs by Western blotting method; format: functional, cell-based
[11] = system: Escherichia coli; assay: Induction of DNA cleavage of Escherichia coli pUC19 at 2 mM by agarose gel elctrophoresis method
[12] = system: HeLa; assay: Induction of cell cycle arrest in human HeLa cells assessed as accumulation at G1 phase at cytotoxic IC50 level after 24 hrs by propidium iodide staining based flow cytometry (reference value: 51.33%); format: functional
[13] = system: A549; assay: Cytotoxicity against human A549 cells assessed as reduction in cell survival after 72 hrs by MTT assay; format: functional, cell-based; settings: A549, 72 h
[14] = system: HeLa; assay: Induction of cell cycle arrest in human HeLa cells assessed as accumulation at G2/M phase at 2 times cytotoxic IC50 level after 24 hrs by propidium iodide staining based flow cytometry (reference value: 24.77%); format: functional
[15] = system: HeLa; assay: Induction of cell cycle arrest in human HeLa cells assessed as accumulation at G2/M phase at cytotoxic IC50 level after 24 hrs by propidium iodide staining based flow cytometry (reference value: 24.77%); format: functional
[16] = system: HeLa; assay: Induction of cell cycle arrest in human HeLa cells assessed as accumulation at G1 phase at 2 times cytotoxic IC50 level after 24 hrs by propidium iodide staining based flow cytometry (reference value: 51.33%); format: functional
[17] = system: Calf thymus DNA; assay: Binding affinity to calf thymus DNA assessed as binding constant at 20 to 60 uM by spectroscopy; format: nucleic-acid assay; settings: Bos taurus
[18] = species on record: Bos taurus; assay: Displacement of Hoechst 33258 from calf thymus DNA at 30 to 60 uM by spectroscopy
[19] = system: HeLa; assay: Induction of cell cycle arrest in human HeLa cells assessed as accumulation at S phase at 2 times cytotoxic IC50 level after 24 hrs by propidium iodide staining based flow cytometry (reference value: 14.5%); format: functional
[20] = system: HeLa; assay: Induction of cell cycle arrest in human HeLa cells assessed as accumulation at subG1 phase at cytotoxic IC50 level after 24 hrs by propidium iodide staining based flow cytometry (reference value: 2.53%); format: functional
[21] = Cytotoxicity against human LS174 cells assessed as reduction in cell survival after 72 hrs by MTT assay; format: functional, cell-based; settings: LS174, 72 h
[22] = species on record: Bos taurus; assay: Displacement of ethidium bromide from calf thymus DNA at 30 to 60 uM by spectroscopy
[23] = species on record: Bos taurus; assay: Displacement of Hoechst 33258 from calf thymus DNA at 30 to 60 uM by spectroscopy relative to control
[24] = system: A549; assay: Induction of caspase-3 activation in human A549 cells assessed as increase in spectrin cleavage product level at cytotoxic IC50 level after 24 hrs by Western blotting method; format: functional, cell-based
[25] = system: Escherichia coli; assay: Inhibition of Fe(2+)-induced DNA cleavage of Escherichia coli pUC19 at 1:2 compound to iron ratio by agarose gel elctrophoresis method
[26] = system: Escherichia coli; assay: Inhibition of Fe(2+)-induced DNA cleavage of Escherichia coli pUC19 at 1:1 compound to iron ratio by agarose gel elctrophoresis method

Cc1ccccc1C(=O)/C=C/c1ccc(/C=C/C(=O)c2cccc3c2C(=O)c2ccccc2C3=O)cc1
Activity [1]: Active
Activity [2]: Active
Activity [3]: 7.89%
Activity [4]: Active
Activity [5]: 17.29%
IC50 [6]: 2.36 µM
IC50 [7]: 41.9 µM
Activity [8]: Active
Activity [9]: Active
Activity [10]: inactive
Activity [11]: inactive
Activity [12]: 38.76%
IC50 [13]: 29.1 µM
Activity [14]: 31.12%
Activity [15]: 32.79%
Activity [16]: 36.75%
Kb [17]: 1.36 ×10³ /M
inhibition [18]: Dose-dependent effect
Activity [19]: 24.44%
Activity [20]: 5.56%
IC50 [21]: 3.13 µM
Activity [22]: inactive
Imax [23]: 61%
Activity [24]: Active

Cc1ccc(C(=O)/C=C/c2ccc(/C=C/C(=O)c3cccc4c3C(=O)c3ccccc3C4=O)cc2)cc1
IC50 [6]: 2.64 µM
IC50 [7]: 38.5 µM
IC50 [13]: 24.2 µM
IC50 [21]: 22.6 µM

Cc1cccc(C(=O)/C=C/c2ccc(/C=C/C(=O)c3cccc4c3C(=O)c3ccccc3C4=O)cc2)c1
IC50 [6]: 2.45 µM
IC50 [7]: 52 µM
IC50 [13]: 33.7 µM
IC50 [21]: 11.8 µM

O=C(/C=C/c1ccc(/C=C/C(=O)c2cccc3c2C(=O)c2ccccc2C3=O)cc1)c1ccccc1
Activity [1]: Active
Activity [2]: Active
Activity [3]: 4.96%
inhibition [25]: inactive
Activity [4]: Active
Activity [5]: 17.06%
IC50 [6]: 2.41 µM
IC50 [7]: 33.6 µM
Activity [8]: Active
Activity [9]: Active
Activity [10]: inactive
Activity [11]: inactive
Activity [12]: 37.54%
inhibition [26]: Active
IC50 [13]: 26.2 µM
Activity [14]: 34.02%
Activity [15]: 35.25%
Activity [16]: 36.61%
Kb [17]: 2.65 ×10³ /M
inhibition [18]: Dose-dependent effect
Activity [19]: 23.04%
Activity [20]: 4.66%
IC50 [21]: 4.56 µM
Activity [22]: inactive
Imax [23]: 52%

O=C(/C=C/c1ccc(Cl)cc1)c1cccc2c1C(=O)c1ccccc1C2=O
IC50 [6]: 33.1 µM
IC50 [7]: 52 µM
IC50 [13]: 35.3 µM
IC50 [21]: 47.2 µM

COc1ccccc1C(=O)/C=C/c1ccc(/C=C/C(=O)c2cccc3c2C(=O)c2ccccc2C3=O)cc1
IC50 [6]: 2.7 µM
IC50 [7]: 43.6 µM
IC50 [13]: 28.1 µM
IC50 [21]: 10.8 µM

COc1ccc(C(=O)/C=C/c2ccc(/C=C/C(=O)c3cccc4c3C(=O)c3ccccc3C4=O)cc2)cc1
IC50 [6]: 4.96 µM
IC50 [7]: 47.4 µM
IC50 [13]: 47.7 µM
IC50 [21]: 34.1 µM

O=C(/C=C/c1ccc(/C=C/C(=O)c2cccc3c2C(=O)c2ccccc2C3=O)cc1)c1ccccc1[N+](=O)[O-]
Activity [1]: Active
Activity [2]: Active
Activity [3]: 5.14%
Activity [4]: Active
Activity [5]: 17.66%
IC50 [6]: 2.73 µM
IC50 [7]: 48.8 µM
Activity [8]: Active
Activity [9]: Active
Activity [10]: inactive
Activity [11]: inactive
Activity [12]: 41.5%
IC50 [13]: 28.8 µM
Activity [14]: 34.15%
Activity [15]: 31.41%
Activity [16]: 35.58%
Kb [17]: 2.51 ×10³ /M
inhibition [18]: Dose-dependent effect
Activity [19]: 25.39%
Activity [20]: 4.65%
IC50 [21]: 6.44 µM
Activity [22]: inactive
Imax [23]: 41%
Activity [24]: Active

Cc1cccc(/C=C/C(=O)c2cccc3c2C(=O)c2ccccc2C3=O)c1
IC50 [6]: 11.6 µM
IC50 [7]: 33.7 µM
IC50 [13]: 33 µM
IC50 [21]: 21.5 µM

Cc1ccc(/C=C/C(=O)c2cccc3c2C(=O)c2ccccc2C3=O)cc1
IC50 [6]: 34.1 µM
IC50 [7]: 50.5 µM
IC50 [13]: 38.3 µM
IC50 [21]: 48.2 µM

O=C(/C=C/c1ccc(/C=C/C(=O)c2cccc3c2C(=O)c2ccccc2C3=O)cc1)c1ccccc1F
IC50 [6]: 2.66 µM
IC50 [7]: 31.5 µM
IC50 [13]: 31.6 µM
IC50 [21]: 17.8 µM

Cc1ccccc1/C=C/C(=O)c1cccc2c1C(=O)c1ccccc1C2=O
IC50 [6]: 12.1 µM
IC50 [7]: 48.6 µM
IC50 [13]: 44.6 µM
IC50 [21]: 45.2 µM

COc1cccc(C(=O)/C=C/c2ccc(/C=C/C(=O)c3cccc4c3C(=O)c3ccccc3C4=O)cc2)c1
IC50 [6]: 2.77 µM
IC50 [7]: 46.5 µM
IC50 [13]: 30.9 µM
IC50 [21]: 16.7 µM

O=C(/C=C/c1ccc(/C=C/C(=O)c2cccc3c2C(=O)c2ccccc2C3=O)cc1)c1ccc(F)cc1
IC50 [6]: 2.62 µM
IC50 [7]: 37 µM
IC50 [13]: 36.3 µM
IC50 [21]: 10.6 µM

O=C(/C=C/c1ccccc1)c1cccc2c1C(=O)c1ccccc1C2=O
IC50 [6]: 14.8 µM
IC50 [7]: 46.4 µM
IC50 [13]: 35.5 µM
IC50 [21]: 31.3 µM
